In brackets after ≈: the same amount, converted by molar mass.
What was measured:
cancer cells = conditions: literature; cited from earlier work
KB-C2 = assay: in vitro chemosensitivity test, MTT colorimetric assay with vincristine (Test Example 1, Table 1); type: cell-based; conditions: Homo sapiens, KB-C2, 96 h, read-out: IC50 of vincristine without a sample
Description: MTT colorimetric assay performed in a 96-well plate was used for an in vitro chemosensitivity test. The assay is dependent on the reduction of MTT by the mitochondrial dehydrogenase of viable cells to a blue formazan product which can be measured spectrophotometrically. Equal numbers of cells (2,000 for KB-3-1 and 5,000 for KB-C2) were inoculated into each well with […] of culture medium. After overnight incubation (37° C., 5% CO2), 20 μl of vincristine solution and 0.5 μl of sample solution were added and incubated for 4 days. Then, 50 μl of MTT (1.1 mg/ml PBS) was added to each well and incubated for further 4 hours. The resulting formazan was dissolved with 100 μl of DMSO after aspiration of the culture medium. Plates were placed on a plate shaker for 5 minutes and read immediately at 570 nm. IC50 (mg/ml) with a tested sample 10 μM is given in Table 1; and IC50 of vincristine without a sample was 5,000 ng/ml.
MTT: 3-(4,5-dimethylthiazol-2-yl)-2,5-diphenyltetrazolium bromide
MEM: minimum essential medium

Row | SMILES | effect on multidrug resistance / antitumor drug effects (cancer cells) | IC50 (KB-C2)
1 | COc1ccc(CCN(C)CCCC(C#N)(c2ccc(OC)c(OC)c2)C(C)C)cc1OC (stereo not shown) [Verapamil] | overcomes the multidrug resistance against antitumor drugs | –
2 | COc1ccc([C@@H]2Sc3ccccc3N(CCN(C)C)C(=O)[C@@H]2OC(C)=O)cc1 [diltiazem] | enhances the drug effects of vincristine (VCR) | –
3 | COC(=O)C1=C(C)NC(C)=C(C(=O)OCCN(C)Cc2ccccc2)C1c1cccc([N+](=O)[O-])c1 (stereo not shown) [nicardipin] | enhances the antitumor activities of vindecine sulfate | –
4 | CC[C@]1(O)C[C@H]2CN(CCc3c([nH]c4ccccc34)[C@@](C(=O)OC)(c3cc4c(cc3OC)N(C=O)[C@H]3[C@@](O)(C(=O)OC)[C@H](OC(C)=O)[C@]5(CC)C=CCN6CC[C@]43[C@@H]65)C2)C1 [vincristine] | – | 5 µg/mL (≈ 6.06 µM)

Source: patent US5130303A, “Drug effect-enhancing agent for antitumor drug” (Nissan Chemical Industries Ltd., priority 1988, dated 1992)
